We go through 8 molecules from US10144737B2 (ETERNITY BIOSCIENCE INC., priority 2014, dated 2018).

Each structure is given as a SMILES string.

Test [1] deals with T1, Btk (Homo sapiens, UniProt Q06187).
T1 construct: purchased Promega (Madison, Wis.)
As to the kind of experiment: Btk kinase assay (ADP-Glo). The test is classed as biochemical. The following applies: ADP-Glo Btk kinase assay kit; ATP 1.2 μM; 60 minutes at room temperature. The procedure, abridged:
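Luminescent ADP detection after a 60 min reaction at 22±1 °C containing Btk 2 ng/μl, 1.2 μM ATP, 0.3 μM poly GT peptide and 1.4 mM MnCl2. IC50 from log concentration versus percent inhibition relative to DMSO vehicle.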
A general note: ADP-Glo first removes unused ATP, then detects ADP through luciferase.

Test [2] concerns TMD-8 cells. As to the kind of experiment: Cell proliferation assay (CellTiter-Glo), TMD-8 cells. The following applies: Homo sapiens, TMD8, 120 h, 5-day treatment, read-out: TMD8 cell growth (GI50 μM). The test is classed as cell-based. The procedure, abridged:
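TMD-8 cells seeded at 5,000–10,000/well, cultured overnight, then exposed to compound (vehicle 0.5% DMSO) for 5 days at 37 °C. Growth read by CellTiter-Glo luminescence; IC50 from log concentration versus % growth inhibition relative to vehicle.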

T1 sequence (Q06187 whole entry): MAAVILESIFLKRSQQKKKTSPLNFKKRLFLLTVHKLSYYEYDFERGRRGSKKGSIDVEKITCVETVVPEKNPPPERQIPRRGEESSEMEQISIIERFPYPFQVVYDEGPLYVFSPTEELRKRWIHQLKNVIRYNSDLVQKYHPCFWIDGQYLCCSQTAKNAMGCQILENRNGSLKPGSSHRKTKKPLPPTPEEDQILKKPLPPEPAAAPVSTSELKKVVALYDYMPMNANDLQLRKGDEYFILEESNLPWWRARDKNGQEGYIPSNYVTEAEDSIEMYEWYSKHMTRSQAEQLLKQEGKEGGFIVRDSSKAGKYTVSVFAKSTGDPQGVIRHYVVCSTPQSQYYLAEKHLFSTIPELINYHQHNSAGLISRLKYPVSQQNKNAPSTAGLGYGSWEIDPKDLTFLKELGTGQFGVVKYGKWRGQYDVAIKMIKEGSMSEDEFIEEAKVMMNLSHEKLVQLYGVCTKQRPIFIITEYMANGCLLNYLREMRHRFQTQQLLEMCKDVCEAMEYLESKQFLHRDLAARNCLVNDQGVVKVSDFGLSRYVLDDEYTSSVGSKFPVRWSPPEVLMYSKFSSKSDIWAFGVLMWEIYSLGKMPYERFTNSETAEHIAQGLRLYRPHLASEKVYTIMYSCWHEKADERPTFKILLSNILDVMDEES

A word on the IC50: it is the concentration that gives 50% inhibition. A higher IC50 goes with lower potency. In general, GI50 refers to the concentration that inhibits growth by half. The molecule `C=CC(=O)N1CC[C@@H](Nc2ncnc3[nH]c(C#CCOc4c(F)cccc4F)nc23)C1` [Example 98, (R)-1-(3-((8-(3-(2,6-difluorophenoxy)prop-1-yn-1-yl)-9H-purin-6-yl)amino)pyrrolidin-1-yl)prop-2-en-1-one] had an IC50 in test [1] of 0.006 µM. For the same molecule, the GI50 in test [2] stood at 0.005 µM.
In test [1], `C=CC(=O)N1CC[C@@H](Nc2ncnc3[nH]c(C#CCOc4cccc(F)c4F)nc23)C1` [Example 99, (R)-1-(3-((8-(3-(2,3-difluorophenoxy)prop-1-yn-1-yl)-9H-purin-6-yl)amino)pyrrolidin-1-yl)prop-2-en-1-one] displayed an IC50 of 0.0003 µM. For the same molecule, in test [2], the concentration for 50% growth inhibition (GI50) stood at 0.001 µM.
For `C=CC(=O)N1CC[C@@H](Nc2ncnc3[nH]c(C#CCOc4cccc(F)c4Cl)nc23)C1` [Example 100, (R)-1-(3-((8-(3-(2-chloro-3-fluorophenoxy)prop-1-yn-1-yl)-9H-purin-6-yl)amino)pyrrolidin-1-yl)prop-2-en-1-one], in that order: 0.032 µM and 0.006 µM.
Consider `C=CC(=O)N1CC[C@@H](Nc2ncnc3[nH]c(C#CCOc4ccccc4F)nc23)C1` [Example 101, (R)-1-(3-((8-(3-(2-fluorophenoxy)prop-1-yn-1-yl)-9H-purin-6-yl)amino)pyrrolidin-1-yl)prop-2-en-1-one], for which 0.001 µM corresponded to half-maximal inhibition in test [1] (IC50). Besides, the GI50 in test [2] was 0.003 µM.
For `C=CC(=O)N1CC[C@@H](Nc2ncnc3[nH]c(C#CCOc4ccccc4OC)nc23)C1` [Example 102, (R)-1-(3-((8-(3-(2-methoxyphenoxy)prop-1-yn-1-yl)-9H-purin-6-yl)amino)pyrrolidin-1-yl)prop-2-en-1-one], in that order: 0.0002 µM and 0.004 µM.
In test [1], `C=CC(=O)Nc1cccc(Nc2ncnc3[nH]c(C#Cc4ccccc4)cc23)c1` [Example 103, N-(3-((6-(phenylethynyl)-7H-pyrrolo[2,3-d]pyrimidin-4-yl)amino)phenyl)acrylamide] displayed an IC50 of 0.0003 µM. For the same molecule, the GI50 in test [2] was found to be 0.079 µM.
On the same counts, the results for `C=CC(=O)Nc1cccc(Nc2ncnc3[nH]c(C#Cc4ccsc4)cc23)c1` [Example 104, N-(3-((6-(thiophen-3-ylethynyl)-7H-pyrrolo[2,3-d]pyrimidin-4-yl)amino)phenyl)acrylamide] are 0.006 µM and 0.017 µM.
On the same counts, the results for `C=CC(=O)Nc1cccc(Nc2ncnc3[nH]c(C#Cc4ccc(Cl)cc4)cc23)c1` [Example 105, N-(3-((6-((4-chlorophenyl)ethynyl)-7H-pyrrolo[2,3-d]pyrimidin-4-yl)amino)phenyl)acrylamide] are 0.155 µM and 0.048 µM.
